Laboratory results: patent US10350213B2 (AI Therapeutics, Inc., priority 2015, dated 2019)

Key:
[1] = system: WSU-DLCL2 (Human Diffuse Large B Cell Lymphoma -GCB); experiment: CellTiterGlo cell viability assay; type: cell-based; conditions: Homo sapiens, WSUDLCL2, 72 h, three-day assay, read-out: IC50 (nM) WSU-DLCL2
[2] = system: SUDHL-4 (Human Diffuse Large B Cell Lymphoma -GCB); experiment: CellTiterGlo cell viability assay; type: cell-based; conditions: Homo sapiens, 72 h; SU-DHL-4; three-day assay; read-out: IC50 (nM) SU-DHL-4

Row | SMILES | IC50 [1] [nM] | IC50 [2] [nM]
1 | O=C(/C=C\n1cnc(-c2cc(C(F)(F)F)cc(C(F)(F)F)c2)n1)NNc1cnccn1 [KPT-330] | 165 | 93
2 | C=CC(=O)N1CCC[C@@H](n2nc(-c3ccc(Oc4ccccc4)cc3)c3c(N)ncnc32)C1 [ibrutinib] | 747 | 718
3 | CC1(C)CCC(CN2CCN(c3ccc(C(=O)NS(=O)(=O)c4ccc(NCC5CCOCC5)c([N+](=O)[O-])c4)c(Oc4cnc5[nH]ccc5c4)c3)CC2)=C(c2ccc(Cl)cc2)C1 [ABT-199] | 3370 | 212
4 | C[C@H](Nc1ncnc2nc[nH]c12)c1cc2cccc(Cl)c2c(=O)n1-c1ccccc1 [duvelisib] | 863 | 13
5 | CC[C@H](Nc1ncnc2[nH]cnc12)c1nc2cccc(F)c2c(=O)n1-c1ccccc1 [idelalisib] | 6150 | 2030
